Data as given in US9587220B2, “Method for inducing cardiac differentiation of pluripotent stem cell” (Kyoto University, priority 2012, dated 2017).
“Also recorded” adds a separate entry of the source. Like-named read-outs stand apart in the source and are kept apart here.

What was measured:
[1] = tested on: human αMHC promoter-driven EGFP transgenic monkey ESCs; experiment: αMHC promoter-driven GFP expression, cardiac differentiation of transgenic monkey ESCs (HCA); assay type: cell-based; conditions: for intensity of the GFP signal driven by αMHC promoter: comparison of chemical and proteinaceous WNT inhibitors, FIG. 3b,c
From the text: To generate human αMHC promoter-driven EGFP-expressing monkey ESCs, the 918 bp upstream from the transcriptional starting site and the third exon just before the open reading frame were amplified from genomic DNAs of KhES-1 hESCs by PCR, using the following primer sets —forward primer, 5′- […]-3′ (SEQ ID No: 37); reverse primer, 5′- (including a SalI linker) 22 […]-3′ (SEQ ID No: 38)—and then ligated into pGEM-T Easy Vector (Promega). The HindIII/SalI fragment from the cloning vector was connected with pEGFP-1 (Clontech). The linearized αMHC-EFGP vector was introduced into CMK6.4 monkey ESCs by electroporation. Transgenic ESC clones were selectively grown with G418 (Sigma-Aldrich). The expression of EGEP was confirmed in beating colonies.
The confluent (4-5 d after passage) αMHC-GFP transgenic monkey ESCs were dissociated enzymatically by CTK solution (Non-patent literature 1), and the ESC clumps (40-100 μm in diameter) were obtained using 40 and 100 μm Cell Strainers (BD Biosciences). The ESC clumps (approximately 5.0×10^3 cells well^−1) were transferred onto 96-well plates (Greiner Bio-One, 96-well black plate, Cat. No. 655090) and incubated in cardiac differentiation medium as described in (4) below. During Days 6-14 of cardiac differentiation, 9600 compounds from the chemical library (dissolved in DMSO) were screened using 96-well plates. Sixteen and 80 wells were used for the control (0.1% DMSO) and chemical compounds (1 per well), respectively. Final concentration of the each compound was approximately 1-5 μM. Medium containing small molecules was changed every 4 d. On Day 14, GFP fluorescence of ESCs was measured by whole-plate scanning, using the Metamorph imaging system (Molecular Device). Metamorph software was used to analyze the GFP fluorescence data and calculate Fluorescence Area, Total Fluorescence Intensity, Average Fluorescence Intensity, and number of GFP-positive colonies for each well. Hit compounds were determined by the following criteria: Average Fluorescence Intensity of a well with the compound was >6 SD greater than Average Fluorescence Intensity of the control (mean of 16 wells), and Total Fluorescence Intensity for the compound was >0 SD greater than the control; or Total Fluorescence Intensity of the compound was >4 SD greater than the control, and Average Fluorescence Intensity of the compound was >0 SD greater than the control. One hundred and twenty compounds passed these criteria and were retested using 8 wells for each compound.
Confluent hESCs and hiPSCs were gently detached with CTK solution and transferred into Petri dishes (BD Biosciences) with Primate ES Cell Culture Medium (ReproCELL, Japan). Cells were held in suspension culture for 8-24 h to form aggregates. The sizes of hPSC aggregates (0.3-1 mm in diameter) are important for efficient differentiation. Following suspension culture, cell aggregates were attached to culture dishes (3-10×10^5 cells cm^−2) in cardiac differentiation medium: IMDM (Sigma), containing 20% FBS (Gibco), 1% MEM non-essential amino acid solution (Sigma), 1% Penicillin-Streptomycin (Gibco), 2 mM L-glutamine (Sigma), 0.001% 2-Mercaptoethanol (Gibco), and 0.005N NaOH, with 10 ng ml^−1 BMP4 (R&D Systems). The medium was changed to cardiac differentiation medium with 10 μM KY02111 and/or other WNT inhibitors added on Day 3 (hiPSC lines) or Day 4 (human or monkey ESC lines); XAV939 (Wako, Japan), IWP-2 (Santa Cruz Biotechnology), IWR-1 (Merck4Bioscience), IGFBP4 (R&D Systems), Dkk1 (R&D Systems) and the mixture of bFGF (R&D Systems), BMP4 (R&D Systems), VEGF (R&D Systems), DKK1 (R&D Systems), and Activin A (R&D Systems) (Non-patent literature 16). Medium was changed every 2-3 d. KY02111 and other WNT inhibitors were added until Day 9 for hiPSC lines and the monkey ESC line, or Day 14 for hESC lines. […]

[2] = tested on: human αMHC promoter-driven EGFP transgenic monkey ESCs; experiment: as above; assay type: cell-based
[3] = tested on: WNT target genes in IMR90-1 hiPSCs; experiment: Microarray and qPCR gene expression of WNT target genes; assay type: cell-based, human; conditions: 12, 24 and 72 h after treatment
Description: IMR90-1 iPSCs were cultured in cardiac differentiation medium containing serum. On Day 3, cells were treated with 10 μM KY02111 or 0.1% DMSO for 0, 12, or 24 h. Non-treated cells (0 h), cells treated with KY02111 for 12 h (KY12hr) or 24 h (KY24hr), and cells treated with 0.1% DMSO for 12 h (DMSO12hr) or 24 h (DMSO24hr) were used for microarray analysis. Total RNA was prepared using the RNeasy Mini Kit (Qiagen), according to the manufacturer's instructions. Synthesis of cDNA, in vitro transcription and biotin labeling cRNA, and hybridization to the Human Gene 1.0 ST array (Affymetrix) were performed according to Affymetrix protocols. Hybridized arrays were scanned using an Affymetrix GeneChip Scanner. Data normalization and further analysis were performed with GeneSpring GX (Agilent Technologies). Proportions of treated cells expressing genes relative to control (KY02111/DMSO) were calculated for each time point. […] The microarray data have been submitted to the Gene Expression Omnibus (GEO) public database at NCBI (GEO accession number, GSE33622).
Total RNA was isolated with an RNeasy Mini Kit (QIAGEN). Genomic DNA was completely digested with DNase I (Invitrogen). Total RNA (0.5 μg) was subjected to cDNA synthesis using the SuperScript III Reverse Transcriptase (Invitrogen). qRT-PCR was performed in triplicate, using SYBER GREEN PCR Master Mix on a 7500 Real Time PCR System (Applied Biosystems). The cycling conditions were as follows: 10 min at 95° C.; 40 cycles, each consisting of 15 s at 95° C.; 1 min at 60° C. Total RNA from human adult heart tissue (BioChain) was used to evaluate the expression levels of cardiac marker genes for cardiomyocytes derived from hPSCs. All values were normalized with respect to GAPDH expression level and expressed relative to the corresponding values in human adult hearts (100%).

KY-CM colony = experiment: QT interval prolongation assay on microelectrode array; assay type: cell-based, human; conditions: astemizole 300 pM to 30 μM, increased every 4 min
Description: Microelectrode array (MEA) dishes (Multi Channel Systems, Reutlingen, Germany) were coated with ReproCoat (RCESD006, ReproCELL, Japan) in 5% CO2 for 1 h at 37° C. After coating, KY02111-induced cardiomyocytes at Day 30 were transferred into 1 ml of Cardiomyocyte Culture Medium (RCESD006, ReproCELL, Japan) on the MAE dish. Using a pipet tip or glass bar, the cardiomyocytes were gently moved onto the electrode and cultured overnight to attach to the MEA dishes. On the following day, the medium was changed into Cardiomyocyte Test Medium (RCESD003, ReproCELL, Japan). After confirming the presence of beating cardiomyocytes, the MEA dishes were attached to an MEA amplifier (Multi Channel Systems, Reutlingen, Germany), and electrocardiogram-like waves were recorded. After 2 min of recording, 300 pM astemizole (Sigma) or 0.1% DMSO were added, and the concentrations of astemizole (300 pM to 30 μM) were increased every 4 min. ECG-like waves were recorded after 2 min of each astemizole treatment. Beating rate, Na^+ amplitude, K^+ amplitude, and Na^+—K^+ interval were analyzed by LabChart™ software v7 (ADInstruments, Adelaide, Australia).

[4] = tested on: KY02111-induced cardiomyocytes (KY-CMs); conditions: depolarizing pulses -40 to +40 mV for 500 msec
Description: Cells were isolated from beating hPSC-derived cardiomyocytes, using protease solution. The dissociated cells were cultured for 3-7 d on gelatin-coated cover glasses. Patch-clamp recordings were performed in a temperature-controlled room at approximately 25° C. Data from the whole cell patch-clamp configuration were recorded from spontaneously beating cells, using a HEKA EPC10 amplifier (HEKA Instruments Inc.). An external solution containing 140 mM NaCl, 5 mM KCl, 10 mM HEPES, 2 mM CaCl2, 1 mM MgCl2, and 10 mM glucose was adjusted to pH 7.2 with NaOH. A pipette solution containing 80 mM K-aspartate, 50 mM KCl, 1 mM MgCl2, 10 mM EGTA, 3 mM ATP-Mg, and 10 mM HEPES was adjusted to pH 7.2 with KOH. […] The inhibitors were obtained from Sigma-Aldrich. […] The current-voltage relationship was obtained by holding the membrane potential at −40 to −60 mV, and delivering a depolarizing pulse for 500 ms in a stepwise manner, in increments from −60 to 60 mV for INa, −40 to 40 mV for ICaL, −40 to 40 mV for IKs and IKr, and −50 to −140 mV for Ih.

For O=C(Nc1cccc2cccnc12)c1ccc(N2C(=O)[C@@H]3[C@H](C2=O)[C@@H]2C=C[C@H]3C2)cc1 [IWR-1, reference compound], the “intensity of the GFP signal driven by αMHC promoter” value (shortened to “intensity of the GFP signal driven”) [1] was “increased”.

COc1ccc2nc(NC(=O)Cc3ccc(OC)c(OC)c3)sc2c1 [N11474] was tested, and the “GFP fluorescence of ESCs compared to DMSO” value ([1]; chemical screening, treatment Days 6-14, P=0.015) was “significantly increased; also recorded: significantly enhanced”, the “αMHC promoter-driven EGFP signal on Day 14” value ([2]; treatment after Day 8 (Days 8-12 or Days 10-14)) was “less effective” and the “αMHC promoter-driven EGFP signal on Day 14” value ([2]; treatment on Days 0-4) was “completely repressed GFP expression; also recorded: completely suppressed GFP expression”. For the same molecule, the “αMHC promoter-driven EGFP signal on Day 14” value ([2]; treatment on Days 4-8) was “maximized the increase in GFP expression; also recorded: most effective” and the “αMHC promoter-driven EGFP signal on Day 14” value ([2]; treatment on Days 6-10) was “similarly effective to the screening protocol”.

COc1ccc(CCCC(=O)Nc2nc3ccc(Cl)cc3s2)cc1OC [KY02114, 2-(4-(3,4-dimethoxyphenyl)butanamide)-6-chlorobenzothiazole] was tested, and the “GFP expression level induced by N11474 and related compounds (structure-activity)” value ([1]; DMSO=100%) was “induced the highest levels”.

In the case of O=C1Nc2cc(Br)ccc2/C1=C1/Nc2ccccc2/C1=N\O [BIO], the “expression levels of WNT target genes by qPCR” value [3] is reported as “tended to augment”.

In the case of COc1ccc(CCN2CCC(Nc3nc4ccccc4n3Cc3ccc(F)cc3)CC2)cc1 [astemizole], the “Na+-K+ interval of ECG-like waves” value (KY-CM colony) is reported as “prolonged”.

With CCS(=O)(=O)N(C)[C@H]1c2cc(C#N)ccc2OC(C)(C)[C@@H]1O [chromanol293B] the “KCNQ1 current (IKs)” value [4] was “clearly detected” and the “KCNQ1 current (IKs)” value ([4]; listed as Chromanol293B) was “suppressed”.

B1: DKK1: proteinaceous WNT inhibitor (protein, UniProt O94907 32-266, looked up)
Dickkopf-related protein 1: TLNSVLNSNAIKNLPPPLGGAAGHPGSAVSAAPGILYPGGNKYQTIDNYQPYPCAEDEECGTDEYCASPTRGGDAGVQICLACRKRRKRCMRHAMCCPGNYCKNGICVSSDQNHFRGEIEETITESFGNDHSTLDGYSRRTTLSSKMYHTKGQEGSVCLRSSDCASGLCCARHFWSKICKPVLKEGQVCTKHRRKGSHGLEIFQRCYCGEGLSCRIQKDHHQASNSSRLHTCQRH
B1 was tested, and the “intensity of the GFP signal driven” value [1] was “increased”.

B2: IGFBP4: proteinaceous WNT inhibitor (protein, UniProt P22692 22-258, looked up)
Insulin-like growth …: DEAIHCPPCSEEKLARCRPPVGCEELVREPGCGCCATCALGLGMPCGVYTPRCGSGLRCYPPRGVEKPLHTLMHGQGVCMELAEIEAIQESLQPSDKDEGDHPNNSFSPCSAHDRRCLQKHFAKIRDRSTSGGKMKVNGAPREDARPVPQGSCQSELHRALERLAASQSRTHEDLYIIPIPNCDRNGNFHPKQCHPALDGQRGKCWCVDRKTGVKLPGGLEPKGELDCHQLADSFRE
For B2, the “intensity of the GFP signal driven” value [1] was “increased”.
